3 compounds from ChEMBL document CHEMBL3991601, “The target landscape of clinical kinase drugs” (Science, 2017) can be followed below.

Test [1] addresses Dual specificity tyrosine-phosphorylation-regulated kinase 1A (Homo sapiens, UniProt Q13627).
The target in the next test is Activin receptor type-2B (Homo sapiens, UniProt Q13705).
The target of test [2] is Serine/threonine-protein kinase PAK 4 (Homo sapiens, UniProt O96013).
For test [3], the target named is T1, Serine/threonine-protein kinase STK11 (Homo sapiens, UniProt Q15831).
T1 sequence (Q15831 whole entry): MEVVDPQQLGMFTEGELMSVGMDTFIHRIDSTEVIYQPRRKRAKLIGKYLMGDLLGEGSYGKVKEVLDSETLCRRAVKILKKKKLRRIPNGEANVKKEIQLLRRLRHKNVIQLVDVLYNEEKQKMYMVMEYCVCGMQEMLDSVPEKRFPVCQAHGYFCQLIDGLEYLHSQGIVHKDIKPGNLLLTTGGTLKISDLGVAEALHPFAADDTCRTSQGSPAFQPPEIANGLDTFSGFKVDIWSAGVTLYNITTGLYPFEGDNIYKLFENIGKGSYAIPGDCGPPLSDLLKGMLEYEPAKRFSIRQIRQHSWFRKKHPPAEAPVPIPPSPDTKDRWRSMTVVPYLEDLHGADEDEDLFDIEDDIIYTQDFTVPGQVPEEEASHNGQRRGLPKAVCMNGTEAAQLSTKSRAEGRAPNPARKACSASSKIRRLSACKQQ

Test [4] concerns the target T2, Tyrosine-protein kinase Tec (Homo sapiens, UniProt P42680).
T2 sequence (P42680 whole entry): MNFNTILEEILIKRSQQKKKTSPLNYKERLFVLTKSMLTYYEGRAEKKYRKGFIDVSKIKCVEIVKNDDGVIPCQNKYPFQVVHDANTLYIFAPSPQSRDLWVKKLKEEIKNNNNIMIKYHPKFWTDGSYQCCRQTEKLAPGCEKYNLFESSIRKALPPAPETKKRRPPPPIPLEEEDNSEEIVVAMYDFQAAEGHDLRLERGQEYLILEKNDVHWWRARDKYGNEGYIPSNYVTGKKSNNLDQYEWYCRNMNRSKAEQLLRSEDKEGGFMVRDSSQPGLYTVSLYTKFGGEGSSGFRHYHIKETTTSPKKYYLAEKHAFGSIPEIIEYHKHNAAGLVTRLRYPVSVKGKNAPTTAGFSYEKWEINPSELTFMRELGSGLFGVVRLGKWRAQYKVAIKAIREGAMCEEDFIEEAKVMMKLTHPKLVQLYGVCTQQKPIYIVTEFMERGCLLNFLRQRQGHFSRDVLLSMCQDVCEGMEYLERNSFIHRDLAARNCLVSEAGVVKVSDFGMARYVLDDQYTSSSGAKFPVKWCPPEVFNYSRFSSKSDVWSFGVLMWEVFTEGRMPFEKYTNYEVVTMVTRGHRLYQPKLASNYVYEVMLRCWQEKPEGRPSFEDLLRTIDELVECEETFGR

Test [5] has as its target T3, Serine/threonine-protein kinase TAO3 (Homo sapiens, UniProt Q9H2K8).
T3 sequence (Q9H2K8 whole entry): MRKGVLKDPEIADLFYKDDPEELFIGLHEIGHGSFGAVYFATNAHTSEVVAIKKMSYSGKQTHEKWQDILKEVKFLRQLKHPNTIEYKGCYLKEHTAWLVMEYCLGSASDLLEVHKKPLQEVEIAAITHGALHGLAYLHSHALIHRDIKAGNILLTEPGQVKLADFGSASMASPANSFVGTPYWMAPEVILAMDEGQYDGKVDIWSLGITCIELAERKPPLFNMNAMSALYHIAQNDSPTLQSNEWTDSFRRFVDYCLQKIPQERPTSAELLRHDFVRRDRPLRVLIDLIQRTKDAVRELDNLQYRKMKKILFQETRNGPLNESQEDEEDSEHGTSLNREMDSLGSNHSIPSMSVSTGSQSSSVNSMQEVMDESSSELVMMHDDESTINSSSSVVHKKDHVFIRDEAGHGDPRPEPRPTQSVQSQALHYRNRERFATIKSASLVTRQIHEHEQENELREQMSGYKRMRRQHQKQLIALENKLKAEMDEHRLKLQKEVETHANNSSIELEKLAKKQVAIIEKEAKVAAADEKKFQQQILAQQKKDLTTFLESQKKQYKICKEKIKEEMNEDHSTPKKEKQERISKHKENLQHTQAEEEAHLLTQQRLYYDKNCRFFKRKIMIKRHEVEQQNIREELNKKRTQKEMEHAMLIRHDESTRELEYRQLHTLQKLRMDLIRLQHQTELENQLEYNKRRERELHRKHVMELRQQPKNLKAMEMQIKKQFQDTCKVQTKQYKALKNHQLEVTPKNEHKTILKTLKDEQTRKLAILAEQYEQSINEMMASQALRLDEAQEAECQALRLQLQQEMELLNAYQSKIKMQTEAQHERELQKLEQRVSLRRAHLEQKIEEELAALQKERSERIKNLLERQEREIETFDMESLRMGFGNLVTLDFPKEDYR

Test [6] has as its target T4, Ribosyldihydronicotinamide dehydrogenase [quinone] (Homo sapiens, UniProt P16083).
T4 sequence (P16083 whole entry): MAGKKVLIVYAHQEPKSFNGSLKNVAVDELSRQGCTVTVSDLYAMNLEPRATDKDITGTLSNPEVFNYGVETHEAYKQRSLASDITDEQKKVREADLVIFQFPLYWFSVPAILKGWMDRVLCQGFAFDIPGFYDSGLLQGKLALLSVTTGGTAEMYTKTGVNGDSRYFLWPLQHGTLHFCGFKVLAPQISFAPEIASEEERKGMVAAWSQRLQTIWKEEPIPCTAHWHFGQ

The target of test [7] is Serine/threonine-protein kinase N2 (Homo sapiens, UniProt Q16513).
Test [8] addresses Mitogen-activated protein kinase 8 (Homo sapiens, UniProt P45983).
Test [9] addresses Cyclin-dependent kinase 5 (Homo sapiens, UniProt Q00535).
Test [10] concerns the target Maternal embryonic leucine zipper kinase (Homo sapiens, UniProt Q14680).
Test [11] concerns the target Interleukin-1 receptor-associated kinase 1 (Homo sapiens, UniProt P51617).
The target in test [12] is Chromodomain-helicase-DNA-binding protein 4 (Homo sapiens, UniProt Q14839).

The structures appear in SMILES notation. Active and inactive are the calls of the source. Cut-off read from the data, not from the text of the source, for most assays here: actives have a measured Kd and inactives only a lower limit. A value given as a limit tells only on which side of the number the result lay.
Note: in the data inactive means no Kd found up to 30 µM.

Sequence of Chromodomain-helicase-DNA-binding protein 4 (Q14839 whole entry): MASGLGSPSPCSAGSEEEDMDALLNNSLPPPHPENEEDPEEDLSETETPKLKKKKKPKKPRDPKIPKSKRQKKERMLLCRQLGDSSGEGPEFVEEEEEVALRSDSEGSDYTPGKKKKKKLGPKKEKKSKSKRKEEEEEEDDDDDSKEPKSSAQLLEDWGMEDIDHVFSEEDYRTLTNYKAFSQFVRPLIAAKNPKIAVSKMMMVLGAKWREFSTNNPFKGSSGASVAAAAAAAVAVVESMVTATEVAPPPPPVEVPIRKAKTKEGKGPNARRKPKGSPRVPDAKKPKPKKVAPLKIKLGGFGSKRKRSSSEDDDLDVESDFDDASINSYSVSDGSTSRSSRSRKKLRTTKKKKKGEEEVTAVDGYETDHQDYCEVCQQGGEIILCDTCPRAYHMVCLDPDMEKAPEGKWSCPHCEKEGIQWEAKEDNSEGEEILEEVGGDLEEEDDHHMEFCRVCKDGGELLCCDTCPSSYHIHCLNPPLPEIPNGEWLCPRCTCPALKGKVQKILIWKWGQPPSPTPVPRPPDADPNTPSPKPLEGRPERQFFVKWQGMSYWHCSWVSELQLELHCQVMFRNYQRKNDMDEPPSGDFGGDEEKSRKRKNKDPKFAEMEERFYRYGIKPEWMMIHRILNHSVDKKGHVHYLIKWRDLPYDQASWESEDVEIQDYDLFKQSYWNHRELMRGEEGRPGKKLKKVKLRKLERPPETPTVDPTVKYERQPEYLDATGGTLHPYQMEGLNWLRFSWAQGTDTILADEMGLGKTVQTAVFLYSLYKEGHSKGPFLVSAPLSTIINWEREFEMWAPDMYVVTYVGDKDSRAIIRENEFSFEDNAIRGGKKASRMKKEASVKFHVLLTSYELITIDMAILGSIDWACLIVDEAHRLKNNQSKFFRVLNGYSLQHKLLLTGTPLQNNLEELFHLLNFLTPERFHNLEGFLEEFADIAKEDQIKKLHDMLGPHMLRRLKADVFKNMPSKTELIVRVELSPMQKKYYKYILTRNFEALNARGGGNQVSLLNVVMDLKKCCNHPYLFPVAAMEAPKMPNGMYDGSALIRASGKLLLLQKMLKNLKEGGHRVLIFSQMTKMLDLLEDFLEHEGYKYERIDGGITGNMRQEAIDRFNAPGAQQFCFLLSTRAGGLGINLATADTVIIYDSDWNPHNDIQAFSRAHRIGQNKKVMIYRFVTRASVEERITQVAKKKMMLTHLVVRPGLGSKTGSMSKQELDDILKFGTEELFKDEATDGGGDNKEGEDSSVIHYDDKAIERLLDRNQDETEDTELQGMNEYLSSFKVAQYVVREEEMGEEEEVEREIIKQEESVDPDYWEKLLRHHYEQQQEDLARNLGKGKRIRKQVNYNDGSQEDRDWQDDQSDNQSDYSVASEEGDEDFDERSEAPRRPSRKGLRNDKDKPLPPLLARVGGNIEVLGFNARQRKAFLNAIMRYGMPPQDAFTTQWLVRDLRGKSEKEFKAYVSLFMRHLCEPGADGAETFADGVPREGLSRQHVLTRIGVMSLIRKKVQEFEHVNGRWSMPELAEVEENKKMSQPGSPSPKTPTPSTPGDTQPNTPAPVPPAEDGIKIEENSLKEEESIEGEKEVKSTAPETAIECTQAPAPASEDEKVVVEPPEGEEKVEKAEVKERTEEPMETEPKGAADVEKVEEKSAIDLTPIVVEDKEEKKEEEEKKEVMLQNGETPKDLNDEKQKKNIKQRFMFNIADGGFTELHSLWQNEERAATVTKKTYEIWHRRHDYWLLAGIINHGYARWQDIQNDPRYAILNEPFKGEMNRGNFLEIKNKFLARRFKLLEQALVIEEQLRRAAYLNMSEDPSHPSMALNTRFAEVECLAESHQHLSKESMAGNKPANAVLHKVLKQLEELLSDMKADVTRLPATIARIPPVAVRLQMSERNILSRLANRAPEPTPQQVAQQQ
Sequence of Interleukin-1 receptor-associated kinase 1 (P51617 whole entry): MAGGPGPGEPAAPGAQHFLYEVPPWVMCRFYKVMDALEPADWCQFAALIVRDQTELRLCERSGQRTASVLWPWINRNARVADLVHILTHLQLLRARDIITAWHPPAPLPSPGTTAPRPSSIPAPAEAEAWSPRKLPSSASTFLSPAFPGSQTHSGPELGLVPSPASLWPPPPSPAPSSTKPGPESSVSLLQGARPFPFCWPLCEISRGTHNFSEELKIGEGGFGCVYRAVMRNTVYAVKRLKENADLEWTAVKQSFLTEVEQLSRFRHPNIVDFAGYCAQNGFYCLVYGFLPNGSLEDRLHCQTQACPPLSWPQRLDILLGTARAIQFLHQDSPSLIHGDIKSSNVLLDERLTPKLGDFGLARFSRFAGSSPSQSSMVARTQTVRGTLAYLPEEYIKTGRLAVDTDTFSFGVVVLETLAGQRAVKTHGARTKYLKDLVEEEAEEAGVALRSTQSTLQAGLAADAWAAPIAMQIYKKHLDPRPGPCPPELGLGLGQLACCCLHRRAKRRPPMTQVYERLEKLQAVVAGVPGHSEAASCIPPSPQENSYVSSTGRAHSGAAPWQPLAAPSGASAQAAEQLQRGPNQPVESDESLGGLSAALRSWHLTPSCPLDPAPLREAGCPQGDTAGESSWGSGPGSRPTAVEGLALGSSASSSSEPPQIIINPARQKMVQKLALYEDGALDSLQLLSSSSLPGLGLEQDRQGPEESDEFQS
Sequence of Activin receptor type-2B (Q13705 whole entry): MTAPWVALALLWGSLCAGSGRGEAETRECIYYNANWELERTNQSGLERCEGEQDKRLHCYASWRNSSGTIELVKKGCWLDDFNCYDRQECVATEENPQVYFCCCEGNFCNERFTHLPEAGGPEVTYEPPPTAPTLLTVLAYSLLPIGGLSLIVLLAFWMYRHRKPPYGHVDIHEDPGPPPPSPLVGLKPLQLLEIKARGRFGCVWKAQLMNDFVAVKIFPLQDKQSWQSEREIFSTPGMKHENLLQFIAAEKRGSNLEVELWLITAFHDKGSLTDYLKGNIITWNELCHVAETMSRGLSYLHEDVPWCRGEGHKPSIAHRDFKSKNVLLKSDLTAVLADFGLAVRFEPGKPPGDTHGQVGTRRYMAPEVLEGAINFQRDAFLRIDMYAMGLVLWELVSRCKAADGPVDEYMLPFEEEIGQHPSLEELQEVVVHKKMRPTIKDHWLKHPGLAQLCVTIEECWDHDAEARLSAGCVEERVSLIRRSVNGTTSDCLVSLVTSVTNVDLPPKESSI
Sequence of Serine/threonine-protein kinase N2 (Q16513 whole entry): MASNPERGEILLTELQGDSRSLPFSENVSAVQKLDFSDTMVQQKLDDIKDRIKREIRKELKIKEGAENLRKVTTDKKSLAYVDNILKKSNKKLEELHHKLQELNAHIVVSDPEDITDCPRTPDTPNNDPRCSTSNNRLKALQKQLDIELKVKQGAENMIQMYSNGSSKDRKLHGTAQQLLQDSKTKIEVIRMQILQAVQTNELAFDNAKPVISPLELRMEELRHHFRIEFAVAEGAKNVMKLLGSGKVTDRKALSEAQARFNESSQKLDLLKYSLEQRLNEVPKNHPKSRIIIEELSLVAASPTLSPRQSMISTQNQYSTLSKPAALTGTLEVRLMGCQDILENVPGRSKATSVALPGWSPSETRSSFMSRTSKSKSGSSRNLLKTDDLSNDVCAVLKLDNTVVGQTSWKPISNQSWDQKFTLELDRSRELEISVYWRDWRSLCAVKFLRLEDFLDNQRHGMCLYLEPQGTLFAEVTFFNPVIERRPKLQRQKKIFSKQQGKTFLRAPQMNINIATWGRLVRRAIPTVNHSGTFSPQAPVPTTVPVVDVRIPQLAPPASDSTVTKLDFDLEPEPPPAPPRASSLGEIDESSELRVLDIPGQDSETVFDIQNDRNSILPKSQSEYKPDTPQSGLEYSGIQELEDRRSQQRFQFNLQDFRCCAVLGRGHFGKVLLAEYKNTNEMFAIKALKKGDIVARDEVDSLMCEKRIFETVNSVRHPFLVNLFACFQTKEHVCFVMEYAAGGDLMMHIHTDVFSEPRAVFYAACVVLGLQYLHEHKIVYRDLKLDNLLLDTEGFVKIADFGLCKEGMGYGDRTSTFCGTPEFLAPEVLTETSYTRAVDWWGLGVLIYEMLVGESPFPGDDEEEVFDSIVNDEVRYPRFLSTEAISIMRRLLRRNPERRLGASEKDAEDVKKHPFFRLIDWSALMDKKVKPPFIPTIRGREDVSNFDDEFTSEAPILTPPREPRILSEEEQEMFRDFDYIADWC
Sequence of Maternal embryonic leucine zipper kinase (Q14680 whole entry): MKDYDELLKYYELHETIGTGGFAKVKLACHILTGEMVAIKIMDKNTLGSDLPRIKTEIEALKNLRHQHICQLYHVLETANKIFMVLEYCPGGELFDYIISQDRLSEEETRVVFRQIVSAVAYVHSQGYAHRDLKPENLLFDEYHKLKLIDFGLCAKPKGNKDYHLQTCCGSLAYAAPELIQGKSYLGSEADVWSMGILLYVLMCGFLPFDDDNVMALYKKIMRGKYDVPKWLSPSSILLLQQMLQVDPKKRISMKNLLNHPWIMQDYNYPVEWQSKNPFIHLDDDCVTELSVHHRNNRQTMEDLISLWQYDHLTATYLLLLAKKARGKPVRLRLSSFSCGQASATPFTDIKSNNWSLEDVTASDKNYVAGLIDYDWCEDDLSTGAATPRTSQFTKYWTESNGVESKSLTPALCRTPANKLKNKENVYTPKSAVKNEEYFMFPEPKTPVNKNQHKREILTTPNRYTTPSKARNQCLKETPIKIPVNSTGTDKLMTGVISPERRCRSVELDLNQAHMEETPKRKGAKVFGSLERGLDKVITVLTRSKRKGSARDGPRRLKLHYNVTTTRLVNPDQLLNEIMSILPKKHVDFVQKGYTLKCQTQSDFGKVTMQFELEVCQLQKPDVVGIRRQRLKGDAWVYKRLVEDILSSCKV
Sequence of Cyclin-dependent kinase 5 (Q00535 whole entry): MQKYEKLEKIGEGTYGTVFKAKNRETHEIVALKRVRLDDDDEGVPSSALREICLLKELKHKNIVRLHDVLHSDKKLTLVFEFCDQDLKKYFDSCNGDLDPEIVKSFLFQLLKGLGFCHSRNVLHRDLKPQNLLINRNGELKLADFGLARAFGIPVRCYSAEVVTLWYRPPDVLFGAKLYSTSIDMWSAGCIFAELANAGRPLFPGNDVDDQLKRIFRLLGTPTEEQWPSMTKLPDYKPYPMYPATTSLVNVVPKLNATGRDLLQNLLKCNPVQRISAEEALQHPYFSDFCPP

Take `CC[C@@](C)(Nc1ccnc(-c2c[nH]c3ncccc23)n1)C(=O)NCC(F)(F)F` [DECERNOTINIB]: the Kd (usually the constant that tells how readily two partners part at equilibrium) in test [1] is > 30 µM (inactive); at Activin receptor type-2B, > 30 µM (inactive); in test [2], > 30 µM (inactive); in [3] it was > 30 µM (inactive); in [4], > 30 µM (inactive); in test [5] it was 7.87 µM (active). Further, the Kd in test [6], in test [7], in test [8], in [9], in [10] and in test [11] was > 30 µM (inactive) each time. The Kd in [12] was > 30 µM (inactive).
Regarding `O=C(NOC[C@H](O)CO)c1ccc(F)c(F)c1Nc1ccc(I)cc1F` [MIRDAMETINIB], the Kd (in [1]; on Activin receptor type-2B; in test [2]; in [3]; in test [4]; in [5]) was > 30 µM (inactive) each time. The Kd in test [6], in test [7], in test [8], in [9], in [10] and in test [11] was > 30 µM (inactive) each time. Also, the Kd in test [12] is > 30 µM (inactive).
With `COc1cc2nccc(Oc3ccc(NC(=O)C4(C(=O)Nc5ccc(F)cc5)CC4)cc3)c2cc1OC` [CABOZANTINIB], the Kd (in test [1]; at Activin receptor type-2B; in [2]; in [3]; in test [4]; in test [5]) was > 30 µM (inactive) each time. In addition, the Kd in test [6], in test [7], in test [8], in test [9], in test [10] and in [11] was > 30 µM (inactive) throughout. Besides, the Kd in test [12] was > 30 µM (inactive).
